Patent US11229629B2, “Inhibitors of mitochondrial fission” (Queen's University at Kingston, priority 2019, dated 2022)

Legend:
A549 cells = experiment: Mitochondrial morphology analysis (MFC, machine learning) in A549 cells; conditions: for Concentration (dose) at which mitochondrial fission was inhibited: in vitro screening
Procedure: Cell Culture: A549 cells were purchased from the American Type Culture Collection (ATCC) and were cultured in Dulbecco's Modified Eagle's Medium (DMEM) (D5796, Sigma Aldrich) supplemented with 10% fetal bovine serum (FBS). Cells were cultured at 37° C. in a humidified incubator balanced with 5% CO2.
Compound solution preparation for in vitro experiments: Candidate compounds were dissolved in anhydrous Dimethyl Sulfoxide (DMSO) (available from Sigma Aldrich), filtered by a 0.20 μm PTFE filter and added to culture medium to make a working solution at designated concentrations. Final concentration of DMSO in culture medium was s 0.1%. Same volume of DMSO was used as control.
(§4) Higher MFC indicates more fragmented mitochondrial network.
Mitochondrial morphology was used as an indicator of Drp1 activity in the in vitro screening, such that Drp1 inhibitors would be identified by an increase in fusion.

MCF7 [1] = experiment: Colony formation assay in MCF7 cells; type: cell-based; conditions: 0.5 μM of Drpitor1a
Procedure: (§1) Colony formation assay: Cells were seeded in 6-well plates and optimal concentrations of compounds were added 24 hours after seeding. After 48 hours of compound treatment, cells were disassociated with 0.25% trypsin-EDTA (25200114, Gibco, Burlington, ON, Canada) and reseeded in a 48-well plate at a density of 200 live cells/mL. After 7-10 days of culture, cells were fixed with 4% paraformaldehyde and then stained with 1% crystal violet (V5265, Millipore Sigma, Etobicoke, ON, Canada). Images of cell colonies were taken by a Panasonic LX3 digital camera (Kadoma, Osaka, Japan).

SK-MES-1 [2] = experiment: Colony formation assay in SK-MES-1 cells; type: cell-based; conditions: 0.5 μM of Drpitor1a
Procedure: as §1

U87 (Glioblastoma cells) = experiment: Cell proliferation of U87 cells; type: cell-based; conditions: 0.15~2.5 μM of Drpitor1a, Ctrl = 1
Procedure: (§2) Cell proliferation assay: Cell proliferation was measured 48 hours post compound treatment using Click-iT® EdU Alexa Fluor® 488 Imaging Kit (available from Thermo Fisher Scientific) according to manufacturer's protocol. 1.0×10^5 cells were seeded per well in 6-well plates and compounds were added 24 hours after seeding. EdU was allowed to incorporate 10 hours before flow cytometry. Percentage of cells incorporated with EdU in each group was determined using SONY SH800S flow cytometer and compared between control group and treatment groups.

SW 900 [3] = experiment: Apoptosis assay (Annexin V/PI) in SW 900 cells; type: cell-based; conditions: 0.25-0.5 μM of Drpitor1a
Procedure: (§5) Apoptosis assay: Cell apoptosis was determined by the Annexin V+ propidium iodide (PI) method using Alexa Fluor 488 Annexin V/Dead Cell Apoptosis Kit (available from ThermoFisher Scientific). A549 cells were collected 48 hours after compound treatment. Percentage of Annexin V (+) and PI (+) cells was determined using SONY S[MUT] flow cytometer and compared between control group and treatment groups.

[4] = system: mutant mouse Drp1 K38A in siDrp1-treated A549 cells; experiment: MFC in A549 cells transfected with siDrp1+mDrp1 K38A; conditions: FIG. 5A
SK-MES-1 [5] = experiment: Apoptosis assay (Annexin V/PI) in SK-MES-1 cells; type: cell-based; conditions: 0.25-0.5 μM of Drpitor1a
Procedure: as §5

MCF7 [6] = experiment: Mitochondrial fragmentation count in MCF7 cells; type: cell-based; conditions: 0.1-0.5 μM of Drpitor1a
[7] = system: Drp1 knocked-down A549 cells; experiment: MFC in Drp1 knocked-down A549 cells with FCCP-induced fission; type: cell-based, human; conditions: FIG. 5B
Procedure: as §4
Carbonyl cyanide-4-(trifluoromethoxy) phenylhydrazone (FCCP) was added, a mitochondrial oxidative phosphorylation uncoupler, to cells treated with siDrp1.

SK-MES-1 [8] = experiment: Cell proliferation assay (EdU) in SK-MES-1 cells; type: cell-based; conditions: 0.5 μM of Drpitor1a
Procedure: as §2

SW 900 [9] = experiment: Cell proliferation assay (EdU) in SW 900 cells; type: cell-based; conditions: 0.5 μM of Drpitor1a
Procedure: as §2

[10] = Liver and kidney toxicity (blood samples), body weight in xenotransplant mice
Description: (§3) In vivo xenotransplant tumor model: BALB/c Rag2^−/−; IL2Rgc^−/− double knock out mice were kindly provided by Dr. M Ito, Central Institute for Experimental Animals, Kawasaki, Japan and were bred in the Animal Facility at Queen's University. Animal protocols were approved by the University Animal Care Committee of Queen's University. A xenotransplant mouse model of human lung cancer was established by subcutaneous injection of A549 cells ([…] per tumor) at the back flank regions. […] Equal volumes of solvents were injected as control. […] Tumor length and width was measured every 2 days. Animals were euthanized with cervical dislocation under 5% isoflurane inhalation followed by tumor collection. Blood samples were collected for liver and kidney toxicity studies just before euthanasia.

A549 [11] = experiment: Colony formation assay in A549 cells; type: cell-based, human; conditions: 0.5 μM of Drpitor1a
Procedure: as §1

SK-LU-1 [12] = experiment: Colony formation assay in SK-LU-1 cells; type: cell-based; conditions: 0.5 μM of Drpitor1a
Procedure: as §1

MCF7 [13] = experiment: Cell proliferation assay (EdU) in MCF7 cells; type: cell-based; conditions: 0.5 μM of Drpitor1a
Procedure: as §2

SK-LU-1 [14] = experiment: Cell proliferation assay (EdU) in SK-LU-1 cells; type: cell-based; conditions: 0.5 μM of Drpitor1a
Procedure: as §2

SK-LU-1 [15] = experiment: Mitochondrial fragmentation count in SK-LU-1 cells; type: cell-based; conditions: 0.1-0.5 μM of Drpitor1a
[16] = system: right ventricle ischemia-reperfusion injury; conditions: 0.5 μM in perfusate; ex vivo rat heart
Procedure: Briefly, Sprague-Dawley rats were anesthetized with an intraperitoneal injection of ketamine (75 mg/kg)/xylazine (10 mg/kg). The hearts were harvested and perfused with oxygenated Krebs' solution at 37° C. at a constant pressure of 85 cmH2O on a Langendorff apparatus. RV pressure was measured by a fluid-filled balloon placed in the RV connected to a pressure transducer (Harvard Apparatus; Holliston, Mass., USA). High fidelity signals were recorded using PowerLab 8/35 data acquisition hardware and analyzed using LabChart Pro 8 software (AD Instruments; Colorado Springs, Colo., USA).
IR protocol: Hearts were stabilized for 10 minutes before the IR experiment. Two consecutive cycles of 20 minutes of global ischemia followed by 20 minutes of reperfusion were performed. […] Same volume of DMSO was used as a negative control for test compound. […]
Mitochondrial superoxide imaging and quantification: RV tissues collected from Langendorff RV-IR experiments were cut into pieces of 1×1×1 mm^3 and were incubated with 5 μM of MitoSOX™ Red mitochondrial superoxide indicator (available from Molecular Probes™) at 37° C. for 15 minutes. […] Intensity of the MitoSOX™ Red mitochondrial superoxide indicator was analyzed by the Leica LAS X software.
Test compound was added to the perfusate prior to IR. […] After IR, RV myocardium was collected and mitochondrial superoxide was measured.

A549 [17] = experiment: Cell proliferation assay (EdU) in A549 cells; type: cell-based, human; conditions: for Cell proliferation: A549, 0.5 μM of Drpitor1a, 48 hours; for Percentage of EdU incorporated cells: mdivi-1 50 μM, Drpitor1 0.75 μM, Drpitor1a 0.5 μM, FIG. 6A
Procedure: as §2

A549 [18] = experiment: Apoptosis assay (Annexin V/PI) in A549 cells; type: cell-based, human; conditions: 1.0 μM of Drpitor1, 0.25-0.5 μM of Drpitor1a, 48 hours
Procedure: Apoptosis assay: Cell apoptosis was determined by the Annexin V+ propidium iodide (PI) method using Alexa Fluor 488 Annexin V/Dead Cell Apoptosis Kit (available from ThermoFisher Scientific). A549 cells were collected 48 hours after compound treatment. Percentage of Annexin V (+) and PI (+) cells was determined using SONY S[…] flow cytometer and compared between control group and treatment groups.

mitochondrial complex I = experiment: Mitochondrial complex I activity in A549 cells; type: cell-based, human; conditions: mdivi-1 50 μM, Drpitor1a 0.5 μM; FIG. 5C
SK-MES-1 [19] = experiment: Mitochondrial fragmentation count in SK-MES-1 cells; type: cell-based; conditions: 0.1-0.5 μM of Drpitor1a
[20] = system: Daoy cells (Medulloblastoma cells); experiment: Cell proliferation of Daoy cells; type: cell-based; conditions: 0.15~2.5 μM of Drpitor1a, Ctrl = 1
Procedure: as §2

[21] = system: A549 cells xenotransplant tumor; experiment: In vivo xenotransplant tumor model of human lung cancer; design: species or system mouse; conditions: 10 mg/kg intraperitoneally and intratumorally; end of study
Description: as §3

SK-LU-1 [22] = experiment: Apoptosis assay (Annexin V/PI) in SK-LU-1 cells; type: cell-based; conditions: 0.25-0.5 μM of Drpitor1a
Procedure: as §5

SW 900 [23] = experiment: Mitochondrial fragmentation count in SW 900 cells; type: cell-based; conditions: 0.1-0.5 μM of Drpitor1a
[24] = system: U373 (Glioblastoma cells); experiment: Cell proliferation of U373 cells; type: cell-based; conditions: 0.15~2.5 μM of Drpitor1a, Ctrl = 87.2
Procedure: as §2

PAH PASMC cell lines = experiment: Cell proliferation of PAH PASMC cell lines; type: cell-based, human; design: unit: % EdU-positive cells; conditions: 1.0 μM of Drpitor1a
Procedure: as §2

[25] = 10 mg/kg of Drpitor1a, blood before euthanasia

Structure (SMILES)	Concentration (dose) at which mitochondrial fission was inhibited (A549 cells; A549 cells)	Colony number (MCF7 [1])	Colony number (SK-MES-1 [2])	Cell proliferation (U87 (Glioblastoma cells))	MFC in cells transfected with siDrp1+mDrp1 K38A [4]	Cell proliferation (SK-MES-1 [8])	Cell proliferation (SW 900 [9])	Colony number (A549 [11])	Colony number (SK-LU-1 [12])	Concentration giving the same degree of inhibition of mitochondrial fission (potency) (A549 cells; A549 cells)	Cell proliferation (MCF7 [13])	Cell proliferation (SK-LU-1 [14])	Cell proliferation (A549 [17])	Percentage of EdU incorporated cells (A549 [17])	Apoptosis (A549 [18])	Mitochondrial complex I activity in A549 cells (mitochondrial complex I)	Cell proliferation [20]	Cell proliferation [24]	Cell proliferation (PAH PASMC cell lines; PAH PASMC cell line P1)	Cell proliferation (PAH PASMC cell lines; PAH PASMC cell line P3)	other results
N#Cc1cc2c3ccccc3[nH]c2c2ccccc12 [Compound 13]	20 µM	–	–	–	–	–	–	–	–	–	–	–	–	–	–	–	–	–	–	–	Inhibition of mitochondrial fission (reduction in MFC) in in vitro screening (A549 cells; A549 cells, 17 compounds screened, FIG. 1): most significant inhibition of mitochondrial fission
O=C1c2ccncc2C(=O)c2c1[nH]c1ccccc21 [Drpitor1a]	–	0 ± 0	0 ± 0	0.1084 ± 0.001408	this reduction was not seen	5.523 ± 0.3613	28.37 ± 0.3712	1.5 ± 0.2236	0.6667 ± 0.3333	0.5 µM	3.437 ± 0.2325	5.04 ± 0.5525	46 ± 0.8505	significantly reduced	25.06 ± 0.4675	no significant change	0.7078 ± 0.005519	45.33 ± 0.2728	3.367 ± 0.3335	0.7167 ± 0.05608	Apoptosis (SW 900 [3]): 5.686 ± 0.1402; Apoptosis (SK-MES-1 [5]): 2.464 ± 0.131; MFC (MCF7 [6]): 0.5479 ± 0.05737; MFC on adding compound to siDrp1+FCCP treatment ([7]; A549, Drpitor1a 0.25 μM): reduction of MFC was not seen; Albumin [10, 25]: 26.75 ± 0.9465 g/L; BUN [10, 25]: 6.225 ± 1.186 mmol/L; Cholesterol [10, 25]: 4.188 ± 0.3317 mmol/L; Total bilirubin [10, 25]: 2.5 ± 0.324 µmol/L; Body weight ([10]; 10 mg/kg, 22 days of therapy): did not reduce body weight; Percentage area of elongated (filamentous) mitochondria, machine learning (A549 cells; FIG. 3B): increased percentage area of elongated mitochondria; MFC (SK-LU-1 [15]): 0.3367 ± 0.03623; Mean mitochondrial volume of cardiomyocytes during RV-IR [16]: increased mean mitochondrial volume; MitoSOX intensity (mitochondrial superoxide) in RV during IR [16]: lower MitoSOX intensity; Dose dependence of effect on cell proliferation (A549 [17]): dose-dependent; MFC (SK-MES-1 [19]): 0.2291 ± 0.02596; Reduction in tumor volume [21]: 43.8%; Reduction in tumor weight [21]: 43.9%; Apoptosis (SK-LU-1 [22]): 3.6 ± 0.2292; MFC (SW 900 [23]): 0.3345 ± 0.0309; Cell proliferation (PAH PASMC cell lines; PAH PASMC cell line P7): 9.68 ± 0.563
N#CC(C#N)=NNc1ccc(OC(F)(F)F)cc1 [FCCP, carbonyl cyanide-4-(trifluoromethoxy)phenylhydrazone, reference compound]	–	–	–	–	–	–	–	–	–	–	–	–	–	–	–	–	–	–	–	–	Mitochondrial fission in Drp1 knocked-down A549 cells [7]: caused mitochondrial fission
COc1cc(-n2c(=S)[nH]c3ccccc3c2=O)c(Cl)cc1Cl [mdivi-1, mitochondrial division inhibitor 1, reference compound]	20 µM	7.167 ± 0.7491	5.5 ± 0.5627	0.9552 ± 0.01912	this reduction was not seen	24.97 ± 3.38	50.1 ± 0.7211	0.5 ± 0.3416	2.5 ± 0.4282	25 µM	8.217 ± 1.256	29.5 ± 1.652	32.43 ± 1.481	significantly reduced	15.3 ± 0.5213	no significant change	0.8464 ± 0.008105	65.43 ± 0.06667	7.38 ± 0.1762	0.3567 ± 0.04372	Cell proliferation (PAH PASMC cell lines; PAH PASMC cell line P7): 7.78 ± 0.1882
